Source: PubChem BioAssay AID1919015 (Molecular Pharmacology Branch, DTP, NCI, 2023)

System: OVCAR-5 complex spheroids with HUVEC/MSC, viability, % test/control
Assay: Anticancer human tumor OVCAR-5 cell line growth inhibition [AhR];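 also: spheroids exposed to compounds for 7 days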;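 as to viability, T/C: 100% = DMSO vehicle control wells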
Conditions: for IC50: curve of first compound; for viability, T/C: stronger effect = lower value
Summary of the method: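 Complex tumor spheroids co-cultured with HUVEC and human MSC stroma; AhR antagonists tested in combination with standard-of-care and investigational agents. Top concentration at or near clinical Cmax (else 10 microM), half-log dilutions; growth expressed as percent test/control.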

[1] = second compound 0.1 µM, first compound 0.000949 µM
[2] = second compound 0.1 µM, first compound 0.003 µM
[3] = second compound 0.1 µM, first compound 0.00949 µM
[4] = second compound 0.1 µM, first compound 0.03 µM
[5] = second compound 0.1 µM, first compound 0.0949 µM
[6] = second compound 0.1 µM, first compound 0.3 µM
[7] = second compound 0.316 µM, first compound 0.000949 µM
[8] = second compound 0.316 µM, first compound 0.003 µM
[9] = second compound 0.316 µM, first compound 0.00949 µM
[10] = second compound 0.316 µM, first compound 0.03 µM
[11] = second compound 0.316 µM, first compound 0.0949 µM
[12] = second compound 0.316 µM, first compound 0.3 µM
[13] = second compound 1 µM, first compound 0.000949 µM
[14] = second compound 1 µM, first compound 0.003 µM
[15] = second compound 1 µM, first compound 0.00949 µM
[16] = second compound 1 µM, first compound 0.03 µM
[17] = second compound 1 µM, first compound 0.0949 µM
[18] = second compound 1 µM, first compound 0.3 µM
[19] = second compound 3.16 µM, first compound 0.000949 µM
[20] = second compound 3.16 µM, first compound 0.003 µM
[21] = second compound 3.16 µM, first compound 0.00949 µM
[22] = second compound 3.16 µM, first compound 0.03 µM
[23] = second compound 3.16 µM, first compound 0.0949 µM
[24] = second compound 3.16 µM, first compound 0.3 µM
[25] = second compound 10 µM, first compound 0.000949 µM
[26] = second compound 10 µM, first compound 0.003 µM
[27] = second compound 10 µM, first compound 0.00949 µM
[28] = second compound 10 µM, first compound 0.03 µM
[29] = second compound 10 µM, first compound 0.0949 µM
[30] = second compound 10 µM, first compound 0.3 µM

CC(C)CC(NC(=O)C(Cc1ccccc1)NC(=O)c1cnccn1)B(O)O (stereo not given) + Cc1ccccc1N=Nc1ccc(NC(=O)c2ccnn2C)c(C)c1
IC50 (second compound 0.1 µM): 49.4 nM
IC50 (second compound 0.316 µM): 48.2 nM
IC50 (second compound 1 µM): 50 nM
IC50 (second compound 3.16 µM): 48.2 nM
IC50 (second compound 10 µM): 55.4 nM
viability, T/C [1]: 101%
viability, T/C [2]: 105%
viability, T/C [3]: 96.9%
viability, T/C [4]: 69%
viability, T/C [5]: 25%
viability, T/C [6]: 19.3%
viability, T/C [7]: 104%
viability, T/C [8]: 108%
viability, T/C [9]: 98.7%
viability, T/C [10]: 67.1%
viability, T/C [11]: 25.7%
viability, T/C [12]: 17.6%
viability, T/C [13]: 108%
viability, T/C [14]: 112%
viability, T/C [15]: 101%
viability, T/C [16]: 69.4%
viability, T/C [17]: 25.5%
viability, T/C [18]: 19.6%
viability, T/C [19]: 111%
viability, T/C [20]: 112%
viability, T/C [21]: 105%
viability, T/C [22]: 66.1%
viability, T/C [23]: 26.9%
viability, T/C [24]: 21.5%
viability, T/C [25]: 98.9%
viability, T/C [26]: 105%
viability, T/C [27]: 93.6%
viability, T/C [28]: 73.2%
viability, T/C [29]: 29.3%
viability, T/C [30]: 23.5%

CCc1c2c(nc3ccc(O)cc13)-c1cc3c(c(=O)n1C2)COC(=O)[C@]3(O)CC + Cc1ccccc1N=Nc1ccc(NC(=O)c2ccnn2C)c(C)c1
IC50 (second compound 0.1 µM): 6.95 nM
IC50 (second compound 0.316 µM): 8.2 nM
IC50 (second compound 1 µM): 9.43 nM
IC50 (second compound 3.16 µM): 9.46 nM
IC50 (second compound 10 µM): 10.5 nM
viability, T/C [1]: 85.7%
viability, T/C [2]: 64.3%
viability, T/C [3]: 37.1%
viability, T/C [4]: 36.9%
viability, T/C [5]: 22.5%
viability, T/C [6]: 7.67%
viability, T/C [7]: 87.4%
viability, T/C [8]: 70.3%
viability, T/C [9]: 39.2%
viability, T/C [10]: 37%
viability, T/C [11]: 18.7%
viability, T/C [12]: 6.8%
viability, T/C [13]: 91.3%
viability, T/C [14]: 73.4%
viability, T/C [15]: 40.8%
viability, T/C [16]: 38.3%
viability, T/C [17]: 20.9%
viability, T/C [18]: 7.02%
viability, T/C [19]: 95.9%
viability, T/C [20]: 70.7%
viability, T/C [21]: 45.4%
viability, T/C [22]: 38.1%
viability, T/C [23]: 18.4%
viability, T/C [24]: 7.44%
viability, T/C [25]: 89.5%
viability, T/C [26]: 65.9%
viability, T/C [27]: 45.9%
viability, T/C [28]: 42.1%
viability, T/C [29]: 21.5%
viability, T/C [30]: 8.22%

COc1cc(Nc2ncc3c(n2)-c2ccc(Cl)cc2C(c2c(F)cccc2OC)=NC3)ccc1C(=O)O + Cc1ccccc1N=Nc1ccc(NC(=O)c2ccnn2C)c(C)c1
IC50 (second compound 0.1 µM): 2340 nM
IC50 (second compound 0.316 µM): 2970 nM
IC50 (second compound 1 µM): 4990 nM
IC50 (second compound 3.16 µM): 6140 nM
IC50 (second compound 10 µM): 6340 nM
viability, T/C (second compound 0.1 µM, first compound 0.0316 µM): 89.5%
viability, T/C (second compound 0.1 µM, first compound 0.1 µM): 81.7%
viability, T/C (second compound 0.1 µM, first compound 0.316 µM): 60.2%
viability, T/C (second compound 0.1 µM, first compound 1 µM): 57.2%
viability, T/C (second compound 0.1 µM, first compound 3.16 µM): 50.3%
viability, T/C (second compound 0.1 µM, first compound 10 µM): 42%
viability, T/C (second compound 0.316 µM, first compound 0.0316 µM): 89.4%
viability, T/C (second compound 0.316 µM, first compound 0.1 µM): 86.8%
viability, T/C (second compound 0.316 µM, first compound 0.316 µM): 64.2%
viability, T/C (second compound 0.316 µM, first compound 1 µM): 59.5%
viability, T/C (second compound 0.316 µM, first compound 3.16 µM): 52.3%
viability, T/C (second compound 0.316 µM, first compound 10 µM): 41.7%
viability, T/C (second compound 1 µM, first compound 0.0316 µM): 91.2%
viability, T/C (second compound 1 µM, first compound 0.1 µM): 87.8%
viability, T/C (second compound 1 µM, first compound 0.316 µM): 68.5%
viability, T/C (second compound 1 µM, first compound 1 µM): 64.4%
viability, T/C (second compound 1 µM, first compound 3.16 µM): 55.4%
viability, T/C (second compound 1 µM, first compound 10 µM): 43.7%
viability, T/C (second compound 3.16 µM, first compound 0.0316 µM): 97.6%
viability, T/C (second compound 3.16 µM, first compound 0.1 µM): 91.3%
viability, T/C (second compound 3.16 µM, first compound 0.316 µM): 74.8%
viability, T/C (second compound 3.16 µM, first compound 1 µM): 68.1%
viability, T/C (second compound 3.16 µM, first compound 3.16 µM): 54.5%
viability, T/C (second compound 3.16 µM, first compound 10 µM): 46.2%
viability, T/C (second compound 10 µM, first compound 0.0316 µM): 93.3%
viability, T/C (second compound 10 µM, first compound 0.1 µM): 86.4%
viability, T/C (second compound 10 µM, first compound 0.316 µM): 74.2%
viability, T/C (second compound 10 µM, first compound 1 µM): 67.2%
viability, T/C (second compound 10 µM, first compound 3.16 µM): 54.7%
viability, T/C (second compound 10 µM, first compound 10 µM): 46.6%
